Results on six compounds are retold here after article PMC9503446, “Effects of Medicinal Leech-Related Cationic Antimicrobial Peptides on Human Blood Cells and Plasma” (Molecules, 2022).

≈ marks a conversion by molar mass, not a printed value. Residues, ends and D or L forms follow the SMILES beside them. No end group written: not given here.

One data set deals with isolated neutrophils. Briefly: Luminol-dependent chemiluminescence, neutrophil respiratory burst. It counts as cell-based, human. The following applies: for Neutrophil respiratory burst (luminol-dependent chemiluminescence) in response to peptide-pretreated plasma: final peptide 5 μM or 20 μM, final plasma dilution 1:50, 37 °C. The procedure: Neutrophils and plasma were obtained from the same person. Plasma diluted five times in complete Krebs–Ringer buffer solution was treated with 50 μM or 200 μM CAMP, with plasma dilution and CAMP concentrations being the same as in the samples for hemolysis assay. The final plasma content in samples for CL measurement was restricted to no higher than 2%, since plasma constituents can inhibit luminol-dependent CL due to the scavenging effect. Following the addition of luminol to neutrophils, light emission recording was started. Spontaneous cell activation, if it occurred, was allowed to complete, and then the CAMP-containing plasma or control plasma was added (Figure 6), yielding a final plasma dilution of 1:50 and a final CAMP concentration of 5 μM or 20 μM. […] The effect was dose-dependent (Figure 6).
Chemiluminescence study was conducted at 37 °C with a Lum-1200 chemiluminometer (DISoft Llc, Moscow, Russia) measuring the intensity of emitted light in volts. Assays were performed with the following components in a total volume of 500 μL:435 μL of neutrophil suspension (final, 0.5 × 10^6 cells/mL) in complete Krebs–Ringer buffer solution, 10 μL of luminol (final, 200 μM), 50 μL of five-fold diluted (in the above buffer solution) autologous plasma containing or not containing CAMP at a desired concentration, 5 μL of PMA (final, 160 nM).
Neutrophils were placed in chemiluminometer cuvettes and equilibrated at 37 °C in the cuvette holder, after which luminol was added to each sample and the light emission was continuously recorded. In desired time intervals, plasma mixed with CAMP (or control plasma) and then PMA were added.

For data set [1], the system named is neutrophils in whole blood. Briefly: Neutrophil extracellular trap (NET) assay in whole blood. Type of data set: cell-based, human. The note with it: for NET concentration versus control blood: 100 μM peptide, ex vivo blood, 3 h, 37 °C, no PMA. The procedure:
EDTA-anticoagulated capillary blood was obtained via a finger prick. Blood aliquots of 20 μL were placed in 1.5 mL Eppendorf tubes and mixed with 2 μL of a CAMP solution (or 2 μL of PBS in controls). The samples were incubated for 3 h. After the first 1 h, PMA (100 nM final concentration) was added to a part of them, and incubation continued for a further 2 h. Cell settling was prevented by continuous gentle turning the tubes up and down using a Multi Bio RS-24 rotator (Biosan, Riga, Latvia). The blood was retained at the tube bottom by surface tension.
NET counts were performed using standardized blood smears stained by Romanowsky method. The smears were examined using a Motic B microscope (Motic, Xiamen, China). Quantitative assessment of NETs was performed as described previously. NETs among 300–500 leukocytes were counted in the middle third part of the smear, and the NETs-to-leukocyte percentage ratio was calculated. Based on counting results, the number of NETs in 1 μL of blood was calculated. In each experiment, two parallel samples were prepared and three parallel smears were taken from each at each observation point.

The subject of data set [2] is blood plasma coagulation (intrinsic and final common pathways). Briefly: Plasma coagulation assay, activated partial thromboplastin time (APTT). The note with it: for APTT prolongation versus control: 15 min pre-incubation at room temperature; for APTT change from the control value: 25, 50, 100 μM peptide in plasma. Also noted: species or system human. The protocol: (§1) Plasma samples (50 μL) were incubated for 15 min at room temperature with 0, 25, 50 or 100 μM CAMP, and then the coagulation assay steps were carried out according the manufacturer’s instructions.
(§2) The plasma coagulation tests were performed using an APG4-03-Pkh hemostasis analyzer (EMCO Llc, Moscow, Russia) and MLT-APTT and MLT-THROMBOPLASTIN reagent kits (MLT Llc, Moscow, Russia) according to the manufacturer’s instructions. Testing was performed on Plasma N (normal), a mixed pool of citrate anticoagulated plasma obtained from healthy donors, manufactured by RENAM Rpd, Moscow, Russia. Fifty microliter plasma samples supplemented with CAMPs at different concentrations (or with PBS as control) were pre-incubated at room temperature for 15 min. Afterward, in case of measuring activated partial thromboplastin time (APTT), 50 μL of APTT Reagent were added. The samples were warmed at 37 °C for 3 min, and 50 μL of Calcium Chloride Solution were added to initiate fibrin clot formation. For measuring prothrombin time (PT), pre-incubated plasma samples were warmed at 37 °C for 1 min, and fibrin clot formation was triggered by adding 100 μL of Thromboplastin Reagent.

The test system of another data set is Escherichia coli. The following applies: cited from earlier work. From the text: Table 1 Cationic antimicrobial peptides (CAMPs) used in this study and their characteristics. | column: MIC, μM (E. coli)
For the next data set, the system named is erythrocytes. Description: Morphological observation of isolated erythrocytes (aggregation). Type of data set: cell-based, human. The protocol: Pept_3 stood out from the other four CAMPs in that it not only lysed, but also aggregated cells. An erythrocyte aggregate formed is illustrated by Figure 2. Samples for morphological observation of erythrocytes were the same as those for hemolysis assay. After incubation at 37 °C for 0.5 h, the samples were processed to fix with glutaraldehyde for qualitative morphological evaluation with light microscopy. A glutaraldehyde fixation method was applied for isolated cells to prevent damage that can occur during preparing smears, which are good for cells in blood.
Samples for morphological observation of erythrocytes were the same as those for hemolysis assay. After incubation at 37 °C for 0.5 h, the samples were centrifuged at 100× g for 5 min, following which the supernatant was removed and the cells fixed by resuspending them in 0.5 mL of 1% glutaraldehyde solution in PBS. Then, erythrocytes were left for 3 h at room temperature, with regular mixing. The fixed cells were stored at 4 °C until use. The supernatant over settled cells was withdrawn, and a cell aliquot was placed in a small workspace cut in the piece of scotch tape put on a microscope slide. Images were examined using a Motic B light microscope (Motic, Xiamen, China).

Data set [3] relates to blood plasma coagulation (extrinsic and common pathways). Description: Plasma coagulation assay, prothrombin time (PT). The arrangement: species or system human. The following applies: for PT increase compared to control: 15 min pre-incubation at room temperature; for Effect on PT: 25, 50, 100 μM peptide in plasma. The procedure:
as §1, §2

Take `CCCCCCCCCCCCCC(=O)O[C@@H]1[C@@H](C)[C@@]2(O)[C@@H](C=C(CO)C[C@]3(O)C(=O)C(C)=C[C@@H]23)[C@@H]2C(C)(C)[C@]12OC(C)=O` [PMA, phorbol-12-myristate-13-acetate, reference compound]: the “ROS production by neutrophils (luminol-dependent chemiluminescence)” value with isolated neutrophils (PMA added after CAMP-containing plasma, final 160 nM) is “induced a high ROS production”. Moreover, in data set [1] (100 nM, with or without CAMPs), the “Neutrophil activation in whole blood (morphology)” value was “resulted in neutrophil activation”.

On to `CC(C)C[C@H](NC(=O)[C@H](Cc1ccccc1)NC(=O)[C@H](CS)NC(=O)[C@@H](NC(=O)[C@H](CC(C)C)NC(=O)[C@H](CCCNC(=N)N)NC(=O)[C@H](Cc1c[nH]c2ccccc12)NC(=O)[C@@H](N)CCCNC(=N)N)C(C)C)C(=O)N[C@@H](CS)C(=O)N[C@@H](CCCNC(=N)N)C(=O)N[C@@H](CCCNC(=N)N)C(=O)N[C@@H](CCCCN)C(=O)N[C@@H](CCCCN)C(=O)N[C@H](C(N)=O)C(C)C` [pept_3] (H-RWRLVCFLCRRKKV-NH2; N-terminus and C-terminus assumed), for which, in data set [2] (100 μM peptide in plasma), the “APTT prolongation versus control” value is roughly 390%. Besides, the “MIC (E. coli)” value with Escherichia coli is 17 µM (≈ 31.7 µg/mL). The “Neutrophil respiratory burst (luminol-dependent chemiluminescence) in response to peptide-pretreated plasma” value in the data set with isolated neutrophils is given as “CL increase, though relatively low”. Also, the “NET concentration versus control blood” value in data set [1] is given as “No significant difference”. Also, the Erythrocyte aggregation result with erythrocytes (50 μM peptide in PBS, 0.5 h, 37 °C, glutaraldehyde fixation, light microscopy) is “induces erythrocyte aggregation”. The “Erythrocyte aggregation, peptide preincubated with plasma” value in the data set with erythrocytes (peptide preincubated with plasma) was “no cell aggregation was observed”. The “PT increase compared to control” value in data set [3] (25 μM peptide in plasma) was “about 165%”; in data set [3] (50 μM peptide in plasma) it was 320%; in data set [3] (100 μM peptide in plasma) it was roughly 780%.

For the compound “FLIGKAIKRKFCLRSVWNA [pept_7, synthetic short cationic antimicrobial peptide designed by bioinformatic analysis of the medicinal leech genome and microbiome]”, the “APTT change from the control value” in data set [2] is recorded as “did not cause significant changes”. Besides, the “MIC (E. coli)” value with Escherichia coli was 14.3 µM. For the same compound, in data set [3], the “Effect on PT” value is on record as “did not cause significant changes”.

In the case of “KFKKVIWKSFL-NH2 (C-terminus assumed) [pept_4]”, the “APTT change from the control value” in data set [2] is given as “No significant APTT change”. The “MIC (E. coli)” value in the data set with Escherichia coli was 90 µM. Also, in the data set with isolated neutrophils, the “Neutrophil respiratory burst (luminol-dependent chemiluminescence) in response to peptide-pretreated plasma” value was “no development of the respiratory burst”. For the same compound, in data set [1], the “NET concentration versus control blood” value is “No significant difference”. In data set [3], the “Effect on PT” value is “not significantly affected”.

“RAVIYKIPYNAIASRWIIAPKKC [pept_8, synthetic short cationic antimicrobial peptide designed by bioinformatic analysis of the medicinal leech genome and microbiome]”: the “APTT prolongation versus control” value in data set [2] (100 μM peptide in plasma) is reported as “about 45%”. For the same compound, the “MIC (E. coli)” value with Escherichia coli was 24 µM.

“RLKRFKRVALRREKTARNFRSIVS [pept_6, synthetic short cationic antimicrobial peptide designed by bioinformatic analysis of the medicinal leech genome and microbiome]”: the “APTT increase over the control value” worked out at 1.3 fold in data set [2] (25 μM peptide in plasma), 2.1 fold in data set [2] (50 μM peptide in plasma) and 2.9 fold in data set [2] (100 μM peptide in plasma). For the same compound, in the data set with Escherichia coli, the “MIC (E. coli)” value is greater than 100 µM. In addition, the “Effect on PT” value in data set [3] is “no significant effect”.
